Source: the kinase profiling compilation of Christmann-Franck et al. (2016)

Columns and labels:
NTRK1 (human) = NTRK1 (human) (UniProt P04629); experiment: Caliper, Mobility shift assay off-chip
FES (human) = FES (human) (UniProt P07332); experiment: Caliper, Mobility shift assay off-chip
TAB1 (human) = TAB1 (human) (UniProt Q15750); experiment: Caliper, Mobility shift assay off-chip
ALK NPM1 (human) = ALK NPM1 (human) (UniProt P06748+Q9UM73); experiment: Caliper, Mobility shift assay off-chip
MUSK (human) = MUSK (human) (UniProt O15146); experiment: Caliper, Mobility shift assay off-chip
NEK4 (human) = NEK4 (human) (UniProt P51957); experiment: Caliper, Mobility shift assay off-chip
PRKACG (human) = PRKACG (human) (UniProt P22612); experiment: Caliper, Mobility shift assay off-chip
AKT2 (human) = AKT2 (human) (UniProt P31751); experiment: Caliper, Mobility shift assay off-chip
Sequence of AKT2 (human) (P31751 whole entry, looked up): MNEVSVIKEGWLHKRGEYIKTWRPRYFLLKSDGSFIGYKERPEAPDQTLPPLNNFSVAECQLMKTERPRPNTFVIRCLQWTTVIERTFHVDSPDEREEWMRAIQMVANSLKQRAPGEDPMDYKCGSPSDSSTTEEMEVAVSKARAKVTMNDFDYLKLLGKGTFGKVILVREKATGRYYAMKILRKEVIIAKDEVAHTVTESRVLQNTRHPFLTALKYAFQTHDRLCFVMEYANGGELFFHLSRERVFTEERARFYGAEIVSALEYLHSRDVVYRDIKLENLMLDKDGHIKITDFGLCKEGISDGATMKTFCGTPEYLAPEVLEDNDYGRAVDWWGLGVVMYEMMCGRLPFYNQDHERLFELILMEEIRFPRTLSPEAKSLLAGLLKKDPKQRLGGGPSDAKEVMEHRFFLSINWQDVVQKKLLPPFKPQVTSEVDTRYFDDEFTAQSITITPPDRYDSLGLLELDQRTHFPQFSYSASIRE

CAMK2B (human) = CAMK2B (human) (UniProt Q13554); experiment: Caliper, Mobility shift assay off-chip
Sequence of CAMK2B (human) (Q13554 whole entry, looked up): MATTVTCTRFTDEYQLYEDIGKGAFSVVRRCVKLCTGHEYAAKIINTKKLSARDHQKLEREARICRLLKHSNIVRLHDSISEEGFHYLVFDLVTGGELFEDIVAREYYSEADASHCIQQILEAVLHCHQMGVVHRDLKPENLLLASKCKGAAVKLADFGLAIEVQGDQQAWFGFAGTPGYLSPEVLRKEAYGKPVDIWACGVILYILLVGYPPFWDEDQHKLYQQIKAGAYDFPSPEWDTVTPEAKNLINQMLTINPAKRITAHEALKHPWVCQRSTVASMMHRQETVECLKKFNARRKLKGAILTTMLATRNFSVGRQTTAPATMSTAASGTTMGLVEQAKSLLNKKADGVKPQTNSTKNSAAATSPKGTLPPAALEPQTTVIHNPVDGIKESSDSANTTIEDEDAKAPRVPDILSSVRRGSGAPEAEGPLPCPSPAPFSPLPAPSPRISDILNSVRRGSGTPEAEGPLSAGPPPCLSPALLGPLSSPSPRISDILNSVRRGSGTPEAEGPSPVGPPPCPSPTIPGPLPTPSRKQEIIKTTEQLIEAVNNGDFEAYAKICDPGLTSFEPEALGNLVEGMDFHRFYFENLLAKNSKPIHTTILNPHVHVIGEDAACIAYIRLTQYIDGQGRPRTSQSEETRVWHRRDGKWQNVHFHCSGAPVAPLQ

NEK2 (human) = NEK2 (human) (UniProt P51955); experiment: Caliper, Mobility shift assay off-chip
SPHK1 (human) = SPHK1 (human) (UniProt Q9NYA1); experiment: Caliper, Mobility shift assay off-chip
Sequence of SPHK1 (human) (Q9NYA1 whole entry, looked up): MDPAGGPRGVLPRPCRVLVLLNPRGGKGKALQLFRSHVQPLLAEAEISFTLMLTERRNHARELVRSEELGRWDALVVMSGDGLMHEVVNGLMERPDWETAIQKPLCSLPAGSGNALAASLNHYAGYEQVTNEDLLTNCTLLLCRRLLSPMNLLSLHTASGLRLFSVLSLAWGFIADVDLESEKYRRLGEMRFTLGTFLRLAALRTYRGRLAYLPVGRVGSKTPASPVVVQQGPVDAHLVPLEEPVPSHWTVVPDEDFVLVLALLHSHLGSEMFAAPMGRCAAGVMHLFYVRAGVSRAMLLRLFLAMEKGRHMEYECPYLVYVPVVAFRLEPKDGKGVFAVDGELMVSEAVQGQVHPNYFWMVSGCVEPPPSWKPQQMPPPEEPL

MOS (human) = MOS (human) (UniProt P00540); experiment: ELISA
RAF1 (human) = RAF1 (human) (UniProt P04049); experiment: ELISA
MAP3K10 (human) = MAP3K10 (human) (UniProt Q02779); experiment: ELISA
MAP2K7 (human) = MAP2K7 (human) (UniProt O14733); experiment: ELISA
MAP2K2 (human) = MAP2K2 (human) (UniProt P36507); experiment: ELISA
MAP3K12 (human) = MAP3K12 (human) (UniProt Q12852); experiment: ELISA
MAP2K4 (human) = MAP2K4 (human) (UniProt P45985); experiment: ELISA
Sequence of MAP2K4 (human) (P45985 whole entry, looked up): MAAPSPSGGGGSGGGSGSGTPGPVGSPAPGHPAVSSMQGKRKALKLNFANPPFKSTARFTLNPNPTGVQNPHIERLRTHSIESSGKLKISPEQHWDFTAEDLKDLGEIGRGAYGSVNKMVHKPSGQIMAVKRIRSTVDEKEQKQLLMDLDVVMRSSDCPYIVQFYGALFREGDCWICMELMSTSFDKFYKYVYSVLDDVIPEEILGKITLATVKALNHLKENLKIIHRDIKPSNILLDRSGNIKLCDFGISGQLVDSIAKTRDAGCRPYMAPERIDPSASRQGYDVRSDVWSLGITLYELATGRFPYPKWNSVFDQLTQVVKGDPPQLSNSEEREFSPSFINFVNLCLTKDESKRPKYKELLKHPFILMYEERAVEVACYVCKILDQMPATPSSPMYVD

MAP3K1 (human) = MAP3K1 (human) (UniProt Q13233); experiment: ELISA
STK11 (human) = STK11 (human) (UniProt Q15831); experiment: ELISA
Sequence of STK11 (human) (Q15831 whole entry, looked up): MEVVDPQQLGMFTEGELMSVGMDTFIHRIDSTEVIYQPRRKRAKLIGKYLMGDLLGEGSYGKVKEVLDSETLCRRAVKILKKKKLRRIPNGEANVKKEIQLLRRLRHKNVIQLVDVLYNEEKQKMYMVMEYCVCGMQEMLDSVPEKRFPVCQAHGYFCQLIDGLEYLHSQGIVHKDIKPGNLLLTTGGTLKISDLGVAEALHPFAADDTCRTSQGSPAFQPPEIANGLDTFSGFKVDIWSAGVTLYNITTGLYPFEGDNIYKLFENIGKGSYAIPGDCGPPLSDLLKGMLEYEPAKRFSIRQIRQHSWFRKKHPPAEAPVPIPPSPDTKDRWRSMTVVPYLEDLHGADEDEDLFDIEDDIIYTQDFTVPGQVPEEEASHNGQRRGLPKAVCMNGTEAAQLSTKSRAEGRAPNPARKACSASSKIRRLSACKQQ

MAP3K2 (human) = MAP3K2 (human) (UniProt Q9Y2U5); experiment: ELISA
TTK (human) = TTK (human) (UniProt P33981); experiment: ELISA
MAP2K5 (human) = MAP2K5 (human) (UniProt Q13163); experiment: ELISA
Sequence of MAP2K5 (human) (Q13163 whole entry, looked up): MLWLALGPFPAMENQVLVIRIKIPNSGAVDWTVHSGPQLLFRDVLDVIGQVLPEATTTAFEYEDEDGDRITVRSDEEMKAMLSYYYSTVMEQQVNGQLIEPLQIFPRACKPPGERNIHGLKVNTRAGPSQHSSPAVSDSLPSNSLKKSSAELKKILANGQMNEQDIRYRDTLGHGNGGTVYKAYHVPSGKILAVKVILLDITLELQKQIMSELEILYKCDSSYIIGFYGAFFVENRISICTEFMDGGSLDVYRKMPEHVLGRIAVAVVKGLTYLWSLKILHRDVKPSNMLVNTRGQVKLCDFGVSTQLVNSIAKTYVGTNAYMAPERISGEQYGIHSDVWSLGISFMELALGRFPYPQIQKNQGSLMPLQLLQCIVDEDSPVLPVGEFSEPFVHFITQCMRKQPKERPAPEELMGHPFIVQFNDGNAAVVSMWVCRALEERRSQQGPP

MAP3K9 (human) = MAP3K9 (human) (UniProt P80192); experiment: ELISA
MAP3K3 (human) = MAP3K3 (human) (UniProt Q99759); experiment: ELISA
Sequence of MAP3K3 (human) (Q99759 whole entry, looked up): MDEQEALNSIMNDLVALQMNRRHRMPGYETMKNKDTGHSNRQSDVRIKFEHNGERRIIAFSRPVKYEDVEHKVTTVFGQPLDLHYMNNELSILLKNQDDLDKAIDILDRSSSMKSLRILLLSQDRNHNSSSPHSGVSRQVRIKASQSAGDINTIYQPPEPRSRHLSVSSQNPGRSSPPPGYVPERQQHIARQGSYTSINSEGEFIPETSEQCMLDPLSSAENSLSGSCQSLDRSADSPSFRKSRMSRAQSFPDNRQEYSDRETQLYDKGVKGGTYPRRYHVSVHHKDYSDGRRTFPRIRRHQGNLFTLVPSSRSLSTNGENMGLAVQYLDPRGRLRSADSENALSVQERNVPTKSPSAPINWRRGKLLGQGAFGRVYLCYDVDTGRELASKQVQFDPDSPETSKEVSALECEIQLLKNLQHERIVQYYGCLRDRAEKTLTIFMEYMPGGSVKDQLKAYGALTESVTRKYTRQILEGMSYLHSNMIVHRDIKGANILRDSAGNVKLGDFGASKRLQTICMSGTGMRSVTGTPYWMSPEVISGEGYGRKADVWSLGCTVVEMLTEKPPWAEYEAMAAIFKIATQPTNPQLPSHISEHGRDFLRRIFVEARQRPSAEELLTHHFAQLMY

MAP2K6 (human) = MAP2K6 (human) (UniProt P52564); experiment: ELISA
MAP3K8 (human) = MAP3K8 (human) (UniProt P41279); experiment: ELISA
MAP2K1 (human) = MAP2K1 (human) (UniProt Q02750); experiment: ELISA
BMPR1A (human) = BMPR1A (human) (UniProt P36894); experiment: ELISA
WEE1 (human) = WEE1 (human) (UniProt P30291); experiment: ELISA
MAP3K11 (human) = MAP3K11 (human) (UniProt Q16584); experiment: ELISA
MAP3K5 (human) = MAP3K5 (human) (UniProt Q99683); experiment: ELISA
Sequence of MAP3K5 (human) (Q99683 whole entry, looked up): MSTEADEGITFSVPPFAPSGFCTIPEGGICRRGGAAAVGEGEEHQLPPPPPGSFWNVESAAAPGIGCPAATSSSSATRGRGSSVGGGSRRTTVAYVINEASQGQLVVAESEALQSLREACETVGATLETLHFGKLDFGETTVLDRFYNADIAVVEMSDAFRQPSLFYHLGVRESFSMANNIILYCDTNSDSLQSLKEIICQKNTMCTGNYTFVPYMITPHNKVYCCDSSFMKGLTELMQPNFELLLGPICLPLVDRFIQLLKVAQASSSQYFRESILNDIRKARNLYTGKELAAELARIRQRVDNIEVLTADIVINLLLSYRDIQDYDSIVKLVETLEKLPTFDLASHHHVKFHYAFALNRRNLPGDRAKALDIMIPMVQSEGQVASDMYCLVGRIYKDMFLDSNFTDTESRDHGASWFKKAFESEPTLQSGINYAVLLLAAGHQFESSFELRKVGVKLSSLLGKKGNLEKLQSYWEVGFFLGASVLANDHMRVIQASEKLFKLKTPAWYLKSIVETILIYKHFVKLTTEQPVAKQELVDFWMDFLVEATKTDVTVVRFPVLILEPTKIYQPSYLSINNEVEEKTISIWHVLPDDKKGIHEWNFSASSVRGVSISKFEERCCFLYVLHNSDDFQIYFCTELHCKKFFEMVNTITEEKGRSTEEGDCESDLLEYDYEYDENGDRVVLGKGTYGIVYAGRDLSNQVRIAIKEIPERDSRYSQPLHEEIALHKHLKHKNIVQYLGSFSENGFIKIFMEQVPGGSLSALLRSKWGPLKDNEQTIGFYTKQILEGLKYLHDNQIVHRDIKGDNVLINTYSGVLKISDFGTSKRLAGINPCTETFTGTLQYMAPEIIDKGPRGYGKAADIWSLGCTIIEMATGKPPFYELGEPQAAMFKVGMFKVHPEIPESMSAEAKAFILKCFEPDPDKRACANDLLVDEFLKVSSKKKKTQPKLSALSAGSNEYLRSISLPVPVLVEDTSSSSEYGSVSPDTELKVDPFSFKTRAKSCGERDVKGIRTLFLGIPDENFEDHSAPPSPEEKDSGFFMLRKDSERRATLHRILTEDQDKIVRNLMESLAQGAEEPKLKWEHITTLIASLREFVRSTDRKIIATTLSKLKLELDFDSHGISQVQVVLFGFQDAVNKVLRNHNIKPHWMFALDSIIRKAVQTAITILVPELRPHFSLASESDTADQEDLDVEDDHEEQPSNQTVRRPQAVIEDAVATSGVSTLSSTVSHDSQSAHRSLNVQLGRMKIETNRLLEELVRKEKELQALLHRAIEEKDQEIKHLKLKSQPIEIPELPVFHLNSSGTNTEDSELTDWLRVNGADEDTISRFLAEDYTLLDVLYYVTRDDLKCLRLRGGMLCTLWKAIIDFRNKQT

LIMK1 (human) = LIMK1 (human) (UniProt P53667); experiment: ELISA
PLK4 (human) = PLK4 (human) (UniProt O00444); experiment: ELISA

SMILES: CNC(=O)c1cc(Oc2ccc(NC(=O)Nc3ccc(Cl)c(C(F)(F)F)c3)cc2)ccn1
- inhibition (NTRK1 (human); compound 0.02 µM): 7.9%
- inhibition (NTRK1 (human); compound 0.2 µM): 37.2%
- inhibition (FES (human); compound 0.02 µM): -3.2%
- inhibition (FES (human); compound 0.2 µM): 7.2%
- inhibition (TAB1 (human); compound 0.02 µM): 4.8%
- inhibition (TAB1 (human); compound 0.2 µM): 14.3%
- inhibition (ALK NPM1 (human); compound 0.02 µM): -6%
- inhibition (ALK NPM1 (human); compound 0.2 µM): 5%
- inhibition (MUSK (human); compound 0.02 µM): 24.4%
- inhibition (MUSK (human); compound 0.2 µM): 73.9%
- inhibition (NEK4 (human); compound 0.02 µM): -3%
- inhibition (NEK4 (human); compound 0.2 µM): -0.8%
- inhibition (PRKACG (human); compound 0.02 µM): -6.6%
- inhibition (PRKACG (human); compound 0.2 µM): -6%
- inhibition (AKT2 (human); compound 0.02 µM): -9%
- inhibition (AKT2 (human); compound 0.2 µM): -8.2%
- inhibition (CAMK2B (human); compound 0.02 µM): -6.4%
- inhibition (CAMK2B (human); compound 0.2 µM): -7%
- inhibition (NEK2 (human); compound 0.02 µM): -2.3%
- inhibition (NEK2 (human); compound 0.2 µM): 8.8%
- inhibition (SPHK1 (human); compound 0.02 µM): -3.1%
- inhibition (SPHK1 (human); compound 0.2 µM): 3.2%
- inhibition (MOS (human); compound 0.02 µM): 3%
- inhibition (MOS (human); compound 0.2 µM): 0.5%
- inhibition (RAF1 (human); compound 0.02 µM): 41.7%
- inhibition (RAF1 (human); compound 0.2 µM): 88.1%
- inhibition (MAP3K10 (human); compound 0.02 µM): -1.8%
- inhibition (MAP3K10 (human); compound 0.2 µM): -2.3%
- inhibition (MAP2K7 (human); compound 0.02 µM): -0.7%
- inhibition (MAP2K7 (human); compound 0.2 µM): 1.1%
- inhibition (MAP2K2 (human); compound 0.02 µM): -1.8%
- inhibition (MAP2K2 (human); compound 0.2 µM): -2.7%
- inhibition (MAP3K12 (human); compound 0.02 µM): 4.1%
- inhibition (MAP3K12 (human); compound 0.2 µM): 2.7%
- inhibition (MAP2K4 (human); compound 0.02 µM): 1.7%
- inhibition (MAP2K4 (human); compound 0.2 µM): 3.6%
- inhibition (MAP3K1 (human); compound 0.02 µM): 0.7%
- inhibition (MAP3K1 (human); compound 0.2 µM): -0.2%
- inhibition (STK11 (human); compound 0.02 µM): 6.4%
- inhibition (STK11 (human); compound 0.2 µM): 6.2%
- inhibition (MAP3K2 (human); compound 0.02 µM): 5.2%
- inhibition (MAP3K2 (human); compound 0.2 µM): 5.2%
- inhibition (TTK (human); compound 0.02 µM): -7.6%
- inhibition (TTK (human); compound 0.2 µM): -4.3%
- inhibition (MAP2K5 (human); compound 0.02 µM): 3.6%
- inhibition (MAP2K5 (human); compound 0.2 µM): 6.2%
- inhibition (MAP3K9 (human); compound 0.02 µM): 8.6%
- inhibition (MAP3K9 (human); compound 0.2 µM): 10.1%
- inhibition (MAP3K3 (human); compound 0.02 µM): -2.1%
- inhibition (MAP3K3 (human); compound 0.2 µM): -3%
- inhibition (MAP2K6 (human); compound 0.02 µM): 13.6%
- inhibition (MAP2K6 (human); compound 0.2 µM): 64.2%
- inhibition (MAP3K8 (human); compound 0.02 µM): 0.5%
- inhibition (MAP3K8 (human); compound 0.2 µM): 0.2%
- inhibition (MAP2K1 (human); compound 0.02 µM): 13.7%
- inhibition (MAP2K1 (human); compound 0.2 µM): 17.4%
- inhibition (BMPR1A (human); compound 0.02 µM): 6.9%
- inhibition (BMPR1A (human); compound 0.2 µM): 7%
- inhibition (WEE1 (human); compound 0.02 µM): -7.4%
- inhibition (WEE1 (human); compound 0.2 µM): -2%
- inhibition (MAP3K11 (human); compound 0.02 µM): 2.4%
- inhibition (MAP3K11 (human); compound 0.2 µM): -2.6%
- inhibition (MAP3K5 (human); compound 0.02 µM): 9.6%
- inhibition (MAP3K5 (human); compound 0.2 µM): 7.4%
- inhibition (LIMK1 (human); compound 0.02 µM): 2.6%
- inhibition (LIMK1 (human); compound 0.2 µM): 13%
- inhibition (PLK4 (human); compound 0.02 µM): 10.5%
- inhibition (PLK4 (human); compound 0.2 µM): 13.4%

SMILES: Cc1ccc(Nc2nccc(N(C)c3ccc4c(C)n(C)nc4c3)n2)cc1S(N)(=O)=O
- inhibition (NTRK1 (human); compound 0.02 µM): 7%
- inhibition (NTRK1 (human); compound 0.2 µM): 16.7%
- inhibition (TAB1 (human); compound 0.02 µM): 6.5%
- inhibition (TAB1 (human); compound 0.2 µM): 6%
- inhibition (ALK NPM1 (human); compound 0.02 µM): 2.8%
- inhibition (ALK NPM1 (human); compound 0.2 µM): 2.1%
- inhibition (MUSK (human); compound 0.02 µM): -1.6%
- inhibition (MUSK (human); compound 0.2 µM): 0.7%
- inhibition (NEK4 (human); compound 0.02 µM): -3.5%
- inhibition (NEK4 (human); compound 0.2 µM): -0.8%
- inhibition (PRKACG (human); compound 0.02 µM): -6.9%
- inhibition (PRKACG (human); compound 0.2 µM): -6.6%
- inhibition (AKT2 (human); compound 0.02 µM): 4.7%
- inhibition (AKT2 (human); compound 0.2 µM): 3%
- inhibition (CAMK2B (human); compound 0.02 µM): -4.2%
- inhibition (CAMK2B (human); compound 0.2 µM): -5.5%
- inhibition (NEK2 (human); compound 0.02 µM): 5.4%
- inhibition (NEK2 (human); compound 0.2 µM): 12%
- inhibition (SPHK1 (human); compound 0.02 µM): -4.8%
- inhibition (SPHK1 (human); compound 0.2 µM): -5.9%
- inhibition (MOS (human); compound 0.02 µM): -6.8%
- inhibition (MOS (human); compound 0.2 µM): 5%
- inhibition (RAF1 (human); compound 0.02 µM): 22.1%
- inhibition (RAF1 (human); compound 0.2 µM): 77.8%
- inhibition (MAP3K10 (human); compound 0.02 µM): 8.1%
- inhibition (MAP3K10 (human); compound 0.2 µM): 17.3%
- inhibition (MAP2K7 (human); compound 0.02 µM): 3.2%
- inhibition (MAP2K7 (human); compound 0.2 µM): 0.2%
- inhibition (MAP2K2 (human); compound 0.02 µM): -7.4%
- inhibition (MAP2K2 (human); compound 0.2 µM): -4%
- inhibition (MAP3K12 (human); compound 0.02 µM): 8.5%
- inhibition (MAP3K12 (human); compound 0.2 µM): 25%
- inhibition (MAP2K4 (human); compound 0.02 µM): 8.7%
- inhibition (MAP2K4 (human); compound 0.2 µM): 9.5%
- inhibition (MAP3K1 (human); compound 0.02 µM): -1%
- inhibition (MAP3K1 (human); compound 0.2 µM): 3.7%
- inhibition (STK11 (human); compound 0.02 µM): 0.6%
- inhibition (MAP3K2 (human); compound 0.02 µM): -4%
- inhibition (MAP3K2 (human); compound 0.2 µM): 12%
- inhibition (TTK (human); compound 0.02 µM): -8.3%
- inhibition (TTK (human); compound 0.2 µM): 2.4%
- inhibition (MAP2K5 (human); compound 0.02 µM): -16.9%
- inhibition (MAP2K5 (human); compound 0.2 µM): 0%
- inhibition (MAP3K9 (human); compound 0.02 µM): 28.1%
- inhibition (MAP3K9 (human); compound 0.2 µM): 74.8%
- inhibition (MAP3K3 (human); compound 0.02 µM): 4.7%
- inhibition (MAP3K3 (human); compound 0.2 µM): 39.5%
- inhibition (MAP2K6 (human); compound 0.02 µM): 7.1%
- inhibition (MAP2K6 (human); compound 0.2 µM): 24.5%
- inhibition (MAP3K8 (human); compound 0.02 µM): -2.6%
- inhibition (MAP3K8 (human); compound 0.2 µM): -1.1%
- inhibition (MAP2K1 (human); compound 0.02 µM): -3.2%
- inhibition (MAP2K1 (human); compound 0.2 µM): -5.7%
- inhibition (BMPR1A (human); compound 0.02 µM): 0.4%
- inhibition (BMPR1A (human); compound 0.2 µM): 6.5%
- inhibition (WEE1 (human); compound 0.02 µM): -3.7%
- inhibition (WEE1 (human); compound 0.2 µM): -3.5%
- inhibition (MAP3K5 (human); compound 0.02 µM): 1.9%
- inhibition (MAP3K5 (human); compound 0.2 µM): 8.3%
- inhibition (PLK4 (human); compound 0.02 µM): 8.8%
- inhibition (PLK4 (human); compound 0.2 µM): 22.3%
